From US20130109682A1, “CYCLIC ETHER COMPOUNDS USEFUL AS KINASE INHIBITORS” (NOVARTIS AG, priority 2010, published 2013)
pIC50: −log10 of the molar value. Where two headings read alike, the source gives them in different places.

Key:
Type in all cases: biochemical
GSK3β = GSK3β (Homo sapiens, UniProt P49841); assay: GSK3β ATP depletion assay; conditions: read-out: GSK3b IC50
In short: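 Kinase activity is read as ATP consumption: luciferase luminescence reports the ATP remaining once roughly half of the 2 μM ATP is used. Reaction mix: 5 nM GSK3β, 10 μM b-CREB peptide, 50 mM Tris pH 7.5, 15 mM MgCl2, 1 mM DTT, 0.1% BSA, 2.5% DMSO. Enzyme and peptide are preincubated 15 min before ATP is added.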

PKCα = PKCα (Homo sapiens, UniProt P17252); assay: PKCα kinase Caliper assay; conditions: read-out: PKC IC50
Procedure: PKCα and cABLT315 Kinase Caliper Assays
Assays were performed in 384 well microtiter plates. Each assay plate contained 8-point serial dilutions for test compounds, as well as two 16-point serial dilutions of staurosporine as reference compound, plus 16 high- and 16 low controls. Liquid handling and incubation steps were done on a Thermo CatX workstation equipped with a Innovadyne Nanodrop Express. Between pipetting steps, tips were cleaned in wash cycles using wash buffer. Plates with terminated kinase reactions were transferred to the Caliper LC3000 workstations for reading. Phosphorylated and unphosphorylated peptides were separated using the Caliper microfluidic mobilitishift technology and Kinase activities were calculated from the amounts of formed phospho-peptide.
1. 0.05 μA Compound (start with 1.8 mM in 90% DMSO/10% H2O)
2. +4.5 μl 2× peptide/ATP solution
3. +4.5 μl 2× enzyme solution
4. Incubate for 60 min at 30° C.
4. +16 μl stop/run buffer
Independent of the kinase, all reactions were done performed in 50 mM HEPES, pH 7.5, 1 mM DTT, 0.02% Tween20, 0.02% BSA, and 0.6% DMSO.

FLT3D835Y kinase = biological target: T1, FLT3D835Y kinase (Homo sapiens, UniProt P36888, D835Y); assay: FLT3D835Y kinase inhibition assay (LanthaScreen TR-FRET); conditions: read-out: FLT3 IC50
T1 sequence (P36888 27-993 D835Y): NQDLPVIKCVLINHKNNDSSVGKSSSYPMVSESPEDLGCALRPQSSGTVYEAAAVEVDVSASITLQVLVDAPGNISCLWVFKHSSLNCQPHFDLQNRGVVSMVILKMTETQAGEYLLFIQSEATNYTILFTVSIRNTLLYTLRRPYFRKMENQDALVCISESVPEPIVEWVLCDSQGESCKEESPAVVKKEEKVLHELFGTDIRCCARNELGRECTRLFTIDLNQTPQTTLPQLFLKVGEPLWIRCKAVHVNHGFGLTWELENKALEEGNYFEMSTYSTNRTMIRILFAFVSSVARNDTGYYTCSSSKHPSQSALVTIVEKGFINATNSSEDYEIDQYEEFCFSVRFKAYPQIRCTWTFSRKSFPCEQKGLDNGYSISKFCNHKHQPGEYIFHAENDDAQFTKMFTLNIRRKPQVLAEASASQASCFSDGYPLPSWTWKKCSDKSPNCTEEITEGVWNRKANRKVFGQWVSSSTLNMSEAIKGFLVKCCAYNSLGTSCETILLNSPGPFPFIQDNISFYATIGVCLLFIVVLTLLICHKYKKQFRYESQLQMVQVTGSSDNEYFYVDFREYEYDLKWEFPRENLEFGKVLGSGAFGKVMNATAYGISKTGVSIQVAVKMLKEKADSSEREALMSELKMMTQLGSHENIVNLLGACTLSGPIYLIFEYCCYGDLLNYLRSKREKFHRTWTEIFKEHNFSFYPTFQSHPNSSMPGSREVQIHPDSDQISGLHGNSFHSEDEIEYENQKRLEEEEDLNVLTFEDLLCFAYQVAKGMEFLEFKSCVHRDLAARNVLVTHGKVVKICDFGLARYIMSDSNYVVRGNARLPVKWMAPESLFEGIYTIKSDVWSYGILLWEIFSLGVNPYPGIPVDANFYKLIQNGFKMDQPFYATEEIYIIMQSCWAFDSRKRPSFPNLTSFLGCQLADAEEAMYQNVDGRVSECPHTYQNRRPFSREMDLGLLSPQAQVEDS
Procedure: FLT3D835Y Kinase Inhibition Assay
LanthaScreen™ is the detection of Time-Resolved Fluorescence Resonance Energy Transfer (TR-FRET) using lanthanide chelates to measure interactions between various binding partners. The application of TR-FRET to assay kinase activity was first described by Mathis (1995). A TR-FRET assay was used to measure FLT3D835Y kinase inhibitory activity. The assay panel was run on a Biomek FX liquid handling workstations. To the assay plates containing […] compound or control solutions, 4.5 μL of buffer A (50 mM TRIS-HCl pH 7.4, 2 mM DTT, 0.02% Tween 20, 0.02 mM Na3VO4, H2O nanpure) including a generic concentration of ATP (2 μM f.c.) was added per well, followed by […] of buffer B (4 uM ATP in Buffer A) including a generic concentration of polyEAY (50 nM f.c.), FLT3D835Y kinase, and divalent cations. Final concentration of kinase and cations were: [FLT3D835Y kinase]=5.7 nM, [Mg]=3 mM, [Mn]=3 mM. After 1 hour of incubation the kinase reactions were stopped by the addition of 4.5 μL of stop solution D (50 mM EDTA, 20 mM TRIS-HCl pH 7.4, 0.04% NP-40) immediately followed by 4.5 μL of buffer A (50 mM TRIS-HCl pH 7.4, 2 mM DTT, 0.02% Tween 20, 0.02 mM Na3VO4, H2O nanpure) including the Tb-labeled P-20 antibody to give a total detection volume of […]. After an incubation time of 45 min in the dark, the plates were transferred into the Pherastar fluorescence reader for counting. The effect of compound on the enzymatic activity was obtained from the linear progress curves and determined from one reading (end point measurement).

GSK3β, sequence (P49841 whole entry, species assumed): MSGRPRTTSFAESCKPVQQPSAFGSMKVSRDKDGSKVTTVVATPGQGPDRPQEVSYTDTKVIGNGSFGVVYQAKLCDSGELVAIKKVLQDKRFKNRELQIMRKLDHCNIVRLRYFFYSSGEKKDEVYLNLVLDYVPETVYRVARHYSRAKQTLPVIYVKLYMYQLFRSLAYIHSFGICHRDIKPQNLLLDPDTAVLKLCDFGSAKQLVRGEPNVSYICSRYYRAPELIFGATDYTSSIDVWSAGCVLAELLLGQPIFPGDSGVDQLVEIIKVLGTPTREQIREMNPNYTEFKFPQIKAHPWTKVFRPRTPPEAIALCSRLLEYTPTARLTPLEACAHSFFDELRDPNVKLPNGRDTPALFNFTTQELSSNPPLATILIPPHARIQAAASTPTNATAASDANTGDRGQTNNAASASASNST

SMILES	pIC50 (GSK3β)	pIC50 (PKCα)	pIC50 (FLT3D835Y kinase)	pIC50 (GSK3β; ATP depletion assay)	pIC50 (PKCα; PKCα Caliper assay)
C=C1[C@@H](O)C[C@@H](c2ccncc2NC(=O)c2nc(-c3ccccc3)cnc2N)OC12CC2 [Example 5, 3-amino-N-(4-((5S,7S)-7-hydroxy-8-methylene-4-oxaspiro[2.5]octan-5-yl)pyridin-3-yl)-6-phenylpyrazine-2-carboxamide]	9.00	7.22	–	–	–
Nc1ncc(-c2ccccc2)nc1C(=O)Nc1cnccc1[C@H]1C[C@@H](O)[C@H](O)[C@@H](CCl)O1 [Example 36, 3-amino-N-(4-((2R,4R,5S,6S)-6-(chloromethyl)-4,5-dihydroxytetrahydro-2H-pyran-2-yl)pyridin-3-yl)-6-phenylpyrazine-2-carboxamide]	9.00	7.00	–	–	–
C[C@H]1O[C@@H](c2ccncc2NC(=O)c2nc(-c3ccccc3)cnc2N)[C@H](F)[C@@H](O)[C@]1(C)O [Example 58, 3-amino-N-(4-((2S,3R,4S,5S,6R)-3-fluoro-4,5-dihydroxy-5,6-dimethyltetrahydro-2H-pyran-2-yl)pyridin-3-yl)-6-phenylpyrazine-2-carboxamide]	9.00	6.09	–	–	–
C[C@@H]1O[C@H](c2ccncc2NC(=O)c2nc(-c3ccccc3)cnc2N)[C@@H](F)[C@H](O)[C@@]1(C)O [Example 63, 3-amino-N-(4-((2R,3S,4R,5R,6S)-3-fluoro-4,5-dihydroxy-5,6-dimethyltetrahydro-2H-pyran-2-yl)pyridin-3-yl)-6-phenylpyrazine-2-carboxamide]	8.70	7.39	–	–	–
Nc1ncc(-c2ccccc2)nc1C(=O)Nc1cnccc1[C@H]1C[C@@H](O)[C@@]2(O)CCCC[C@H]2O1 [Example 173, 3-amino-N-(4-((2R,4R,4aS,8aR)-4,4a-dihydroxyoctahydro-2H-chromen-2-yl)pyridin-3-yl)-6-phenylpyrazine-2-carboxamide]	8.85	6.51	8.13	–	–
Nc1ncc(-c2ccccc2)nc1C(=O)Nc1cnccc1[C@@H]1C[C@H](O)[C@]2(O)CCCC[C@@H]2O1 [Example 176, 3-amino-N-(4-((2S,4S,4aR,8aS)-4,4a-dihydroxyoctahydro-2H-chromen-2-yl)pyridin-3-yl)-6-phenylpyrazine-2-carboxamide]	7.31	5.59	5.96	–	–
O=C(Nc1cnccc1[C@H]1C[C@@H](O)[C@@]2(O)CCCC[C@H]2O1)c1c[nH]cc(-c2ccccc2)c1=O [Example 178, N-(4-((2R,4R,4aS,8aR)-4,4a-dihydroxyoctahydro-2H-chromen-2-yl)pyridin-3-yl)-4-oxo-5-phenyl-1,4-dihydropyridine-3-carboxamide]	5.37	< 5.00	< 5.00	–	–
Nc1ncc(-c2ccccc2)nc1C(=O)Nc1cnccc1[C@H]1C[C@@H](N)[C@@]2(O)CCC[C@H]2O1 [Example 183, 3-amino-N-(4-((2R,4R,4aS,7aR)-4-amino-4a-hydroxyoctahydrocyclopenta[b]pyran-2-yl)pyridin-3-yl)-6-phenylpyrazine-2-carboxamide]	–	–	8.36	8.36	7.47
CC(C)(C)[C@H]1O[C@@H](c2ccncc2NC(=O)c2nc(-c3ccccc3)cnc2N)C[C@H](N)[C@@H]1O [Example 286, 3-amino-N-(4-((2R,4S,5S,6R)-4-amino-6-tert-butyl-5-hydroxytetrahydro-2H-pyran-2-yl)pyridin-3-yl)-6-phenylpyrazine-2-carboxamide]	–	–	–	9.30	–
C[C@]1(O)[C@@H](N)C[C@H](c2ccncc2NC(=O)c2nc(-c3ccccc3)cnc2N)OC12CC2 [Example 351, 3-amino-N-(4-((5R,7S,8S)-7-amino-8-hydroxy-8-methyl-4-oxaspiro[2.5]octan-5-yl)pyridin-3-yl)-6-phenylpyrazine-2-carboxamide]	–	–	8.30	9.40	–

The next lines start with the values.

pIC50 (GSK3β)	pIC50 (PKCα)	pIC50 (FLT3D835Y kinase)	pIC50 (GSK3β; ATP depletion assay)	pIC50 (PKCα; PKCα Caliper assay)	SMILES
6.34	< 5.00	–	–	–	C[C@H]1O[C@@H](c2ccncc2NC(=O)c2nc(-c3ccccc3)ncc2N)C[C@@H](O)[C@]1(C)O [Example 32, 5-amino-N-(4-((2R,4R,5S,6R)-4,5-dihydroxy-5,6-dimethyltetrahydro-2H-pyran-2-yl)pyridin-3-yl)-2-phenylpyrimidine-4-carboxamide]
6.57	< 5.00	–	–	–	CC[C@H]1O[C@@H](c2ccncc2NC(=O)c2nc(-c3ccccc3)ncc2N)C[C@@H](O)[C@@H]1O [Example 39, 5-amino-N-(4-((2R,4R,5S,6R)-6-ethyl-4,5-dihydroxytetrahydro-2H-pyran-2-yl)pyridin-3-yl)-2-phenylpyrimidine-4-carboxamide]
9.00	6.31	–	–	–	C[C@H]1O[C@@H](c2ccncc2NC(=O)c2nc(-c3ccccc3)cnc2N)C[C@@H](O)[C@]1(C)O [Example 84, 3-amino-N-(4-((2R,4R,5S,6R)-4,5-dihydroxy-5,6-dimethyltetrahydro-2H-pyran-2-yl)pyridin-3-yl)-6-phenylpyrazine-2-carboxamide]
8.52	6.10	–	–	–	C[C@@H]1O[C@H](c2ccncc2NC(=O)c2nc(-c3ccccc3)cnc2N)C[C@H](O)[C@@]1(C)O [Example 86, 3-amino-N-(4-((2S,4S,5R,6S)-4,5-dihydroxy-5,6-dimethyltetrahydro-2H-pyran-2-yl)pyridin-3-yl)-6-phenylpyrazine-2-carboxamide]
6.99	< 5.00	< 5.00	–	–	CC[C@]1(O)[C@H](O)C[C@H](c2ccncc2NC(=O)c2nc(-c3c(F)cccc3F)ncc2N)O[C@@H]1C [Example 143, 5-amino-2-(2,6-difluorophenyl)-N-(4-((2R,4R,5S,6R)-5-ethyl-4,5-dihydroxy-6-methyltetrahydro-2H-pyran-2-yl)pyridin-3-yl)pyrimidine-4-carboxamide]
–	–	6.08	–	5.02	CC[C@]1(O)[C@H](N)C[C@H](c2ccncc2NC(=O)c2ccc(F)c(-c3c(F)cccc3F)n2)O[C@@H]1C [Example 232, N-(4-((2R,4R,5S,6R)-4-amino-5-ethyl-5-hydroxy-6-methyltetrahydro-2H-pyran-2-yl)pyridin-3-yl)-6-(2,6-difluorophenyl)-5-fluoropicolinamide]
